Experimental data reported in publication PMC5062570 (Nature Communications, 2016).
pIC50: −log10 of the molar value. Entries after “also recorded” stand apart in the source; their conditions may differ.

Tests used:
[1] = system: mRNA levels (CTSD, CTSB, CTSF, BACE1, GBA, TFEB) in ARPE-19 cells; experiment: qRT-PCR of inhibitor-treated ARPE-19 cells; type: cell-based, human; conditions: 7 days
[2] = system: retinal pigment epithelium (RPE); experiment: Ocular toxicity, retinal histology in wild-type and BACE1 knockout mice; conditions: 80 mg kg-1 daily; for WT ocular toxicity incidence (positive or negative animals / total evaluated) / WT ocular toxicity outcome: wild-type mice
Description: All experiments and procedures involving animals were conducted as per the established guidelines and protocols that were reviewed and approved by the Pfizer Institutional Animal Care and Use Committee. […] Animals were housed at an Association for Assessment and Accreditation of Laboratory Animal Care International accredited facility in species-specific housing. Sample number was adequately powered for exploratory toxicology studies based on consistent internal practice. Clinically acceptable animals were selected for exploratory toxicology studies and assigned to groups using a computer-assisted randomization procedure based on body weights. For the fluorescent microscopic evaluation of the eyes, animals from the control group were initially evaluated in an unblinded fashion to provide the investigator an understanding of the baseline amount of autofluorescence typical for vehicle-treated animals in the study. A subsequent blinded evaluation of all animals in the study including controls was then performed to identify individuals that were outside the normal range established by the initial unblinded control group review.
After fixation for a minimum of 2 days, each eye was sectioned in half along the mid-sagittal plane with one half being embedded cut side down in a paraffin wax block and the other half returned to fixative. Paraffin blocks were sectioned at 4–5 μm using a microtome and the resulting sections were placed on glass slides, stained with H&E and coverslipped.

[3] = system: CatD; conditions: cited from earlier work
[4] = molecular target: T1, CatE (Homo sapiens, UniProt P14091); experiment: CatE purified enzyme fluorescence polarization assay; type: biochemical
T1 construct: purchased Creative BioMart CTSE-255H
T1 sequence (P14091 54-396): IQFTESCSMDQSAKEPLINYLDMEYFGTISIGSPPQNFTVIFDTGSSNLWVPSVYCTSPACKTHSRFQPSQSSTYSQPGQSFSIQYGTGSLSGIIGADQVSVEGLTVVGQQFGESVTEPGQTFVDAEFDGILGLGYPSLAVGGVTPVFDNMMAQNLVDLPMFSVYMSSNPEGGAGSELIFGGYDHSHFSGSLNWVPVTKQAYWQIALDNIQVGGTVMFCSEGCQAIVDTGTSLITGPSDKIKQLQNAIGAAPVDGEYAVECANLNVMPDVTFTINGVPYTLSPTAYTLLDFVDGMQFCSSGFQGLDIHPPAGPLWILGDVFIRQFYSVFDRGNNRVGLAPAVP
Description: Purified enzyme inhibition of BACE1, BACE2, CatD and CatE was determined using fluorescence polarization (FP) assays. Briefly, purified enzymes were treated with test compounds (1% DMSO, 37 °C) in the presence of synthetic peptide substrates (150 nM) in 30 μl total volume of NaOAc buffer (100 mM, pH 4.5, 0.0001% Tween-20) in a 384-well plate. After incubation, reactions were stopped and substrate captured by the addition of 1.5 μM streptavidin, and FP measured with an EnVision plate reader (PerkinElmer, excitation 485 nm, emission 530 nm). […] BACE2 activity was assessed with 0.5 nM recombinant BACE2 (R&D Systems 4097-AS) and the same synthetic substrate used for BACE1, with a 1 h incubation time. […] CatE activity was assessed with 1.0 nM recombinant CatE (Creative BioMart CTSE-255H) and the same synthetic substrate used for CatD, with a 1.5 h incubation time.

Question: Which “mRNA level changes (qRT-PCR)” value [1] does the source give for `Cc1cc([C@H]2C[C@H]3[C@@H](C)SC(N)=N[C@@]3(c3ccc(F)cc3F)CO2)on1` [PF-9283] here?
Answer: did not display changes in mRNA levels; also recorded: no changes in CatD mRNA levels

Question: And the “BACE1(-/-) ocular toxicity incidence (positive or negative animals / total evaluated)” value ([2]; BACE1(-/-) mice, 14 days)?
Answer: 4/5

Question: What about the “BACE1(-/-) ocular toxicity outcome” value ([2]; BACE1(-/-) mice, 14 days) of the same compound?
Answer: Pos

Question: And the “Retinal finding by fluorescence microscopy” value ([2]; BACE1(-/-) mice, 14 days)?
Answer: accumulated autofluorescent granules were observed

Question: And the “BACE1(-/-) ocular toxicity incidence (positive or negative animals / total evaluated)” value ([2]; BACE1(-/-) mice, 30 days)?
Answer: 6/6

Question: And the “BACE1(-/-) ocular toxicity outcome” value ([2]; BACE1(-/-) mice, 30 days)?
Answer: Pos

Question: What about the “WT ocular toxicity incidence (positive or negative animals / total evaluated)” value ([2]; 2 days) of the same compound?
Answer: 5/5

Question: What about the “WT ocular toxicity outcome” value ([2]; 2 days) of the same compound?
Answer: Neg

Question: What about the “WT ocular toxicity incidence (positive or negative animals / total evaluated)” value ([2]; 4 days) of the same compound?
Answer: 1/5

Question: What about the “WT ocular toxicity outcome” value ([2]; 4 days) of the same compound?
Answer: Pos

Question: And the “WT ocular toxicity incidence (positive or negative animals / total evaluated)” value ([2]; 7 days)?
Answer: 6/6

Question: And the “WT ocular toxicity outcome” value ([2]; 7 days)?
Answer: Pos

Question: What about the “WT ocular toxicity incidence (positive or negative animals / total evaluated)” value ([2]; 14 days) of the same compound?
Answer: 5/5

Question: And the “WT ocular toxicity outcome” value ([2]; 14 days)?
Answer: Pos

Question: And the “WT ocular toxicity incidence (positive or negative animals / total evaluated)” value ([2]; 30 days)?
Answer: 6/6

Question: And the “WT ocular toxicity outcome” value ([2]; 30 days)?
Answer: Pos

Question: And the selectivity ratio [3]?
Answer: 210

Question: And the pIC50 [4]?
Answer: 4.62
